Test results reported in patent US9822068B2, “Inhibitors of fatty acid amide hydrolase (FAAH) enzyme with improved oral bioavailability and their use as medicaments” (THE REGENTS OF THE UNIVERSITY OF CALIFORNIA, priority 2014, dated 2017).

How the values were obtained:
Rat FAAH = Rat FAAH (Rattus norvegicus (Rat), UniProt P97612); experiment: In vitro rat FAAH radiometric assay; type: biochemical; details: rat brain homogenate, 10 min pre-incubation at 37° C.; read-out: r-FAAH IC50
Description: In Vitro Rat FAAH Radiometric Assay
Rat FAAH was prepared from male Sprague Dawley rat brains, homogenized in a potter in 20 mM of Tris HCl pH 7.4, 0.32 M sucrose.
The radiometric assay used to measure FAAH activity was performed in Eppendorf tubes: 50 μg of total rat brain homogenate were pre-incubated in 445.5 μL of assay buffer (50 mM Tris-HCl pH 7.4, 0.05% Fatty acid-free-bovine serum albumin (BSA)) with 4.5 μL of inhibitor (at appropriate concentration in DMSO) or DMSO alone (to measure FAAH total activity) for 10 min at 37° C. The blank (no activity control) was prepared using 445.5 μL of assay buffer and 4.5 μL of DMSO without the 50 μg of total rat brain homogenate.
After 10 min of pre-incubation with test compounds, the reaction was started by adding of 50 μL of substrate and incubating for 30 min at 37° C. The substrate was prepared in assay buffer in order to achieve the final concentration of 1 μM arachidonoyl ethanolamide (Cayman Chemical N. 90050) and 0.6 nM anandamide [ethanolamine-1-^3H] (American Radiolabeled Chemicals Inc, ART. 0626, Conc. 1 mCi/mL, S.A. 60 Ci/mmol). The reaction was stopped by adding cold 1:1 CHCl3/MeOH. After 10 min of centrifugation (845×g at 4° C.) 600 μL of aqueous phase were transferred into scintillation vials previously filled with 3 mL of scintillation fluid (Ultima Gold™, Perkin Elmer Inc., Cat. 6013329). Radioactivity was measured by liquid scintillation counting (MicroBeta2 LumiJET Perkin Elmer Inc.).
(§1) Concentrations causing half-maximal inhibition of FAAH, IC50 values, were determined by non-linear regression analysis of the Log [concentration]/response curves generated with mean replicate values using a four parameter Hill equation curve fitting with GraphPad Prism 5 (GraphPad Software Inc., CA—USA).

human FAAH-1 = human FAAH-1 (Homo sapiens (Human), UniProt O00519); experiment: In vitro human FAAH fluorescent assay; type: biochemical; details: human FAAH-1 membrane preparation from HEK-293, 50 min pre-incubation at 37° C.; read-out: h-FAAH IC50
Description: In Vitro Human FAAH Fluorescent Assay
Human recombinant FAAH was obtained from a HEK-293 cell line stably overexpressing human FAAH-1 enzyme. Cells were grown in Dulbecco's Modified Eagle Medium (DMEM) medium containing 10% FBS, 1% pen/strep, 1% glutamine and 500 μg/mL G418. To obtain membrane preparation cells were scraped off with cold PBS and collected by centrifugation (500×g, 10 min, 4° C.); the cell pellet was re-suspended in 20 mM Tris-HCl pH 7.4, 0.32M sucrose, disrupted by sonication (10 pulses, 5 times) and centrifuged (800×g, 15 min, 4° C.); the collected supernatant was centrifuged at 105,000×g for 1 h at 4° C. and the pellet was re-suspended in PBS.
The fluorescent assay to measure FAAH activity was performed in 96 wells black plates: 2.5 μg of human FAAH-1 membrane preparation were pre-incubated for 50 min at 37° C., in 180 µL of assay buffer (50 mM TrisHCl pH 7.4, 0.05% Fatty acid-free-BSA) with 10 μL of inhibitor (at appropriate concentration in DMSO) or 10 μL DMSO to measure FAAH total activity. The background (no activity) samples were prepared using 180 μL of assay buffer without human FAAH-1 and 10 μL of DMSO. The reaction was then started by the addition of 10 μL of a 40 μM substrate solution (N. 10005098, Cayman Chemical) dissolved in ethanol, and used at a final concentration of 2 μM. The reaction was carried out for 30 min at 37° C. and fluorescence was measured with a Tecan Infinite M200 nanoquant plate reader (excitation wavelength 350 nm/emission wavelength 460 nm).
as §1

Sequence of Rat FAAH (P97612 whole entry): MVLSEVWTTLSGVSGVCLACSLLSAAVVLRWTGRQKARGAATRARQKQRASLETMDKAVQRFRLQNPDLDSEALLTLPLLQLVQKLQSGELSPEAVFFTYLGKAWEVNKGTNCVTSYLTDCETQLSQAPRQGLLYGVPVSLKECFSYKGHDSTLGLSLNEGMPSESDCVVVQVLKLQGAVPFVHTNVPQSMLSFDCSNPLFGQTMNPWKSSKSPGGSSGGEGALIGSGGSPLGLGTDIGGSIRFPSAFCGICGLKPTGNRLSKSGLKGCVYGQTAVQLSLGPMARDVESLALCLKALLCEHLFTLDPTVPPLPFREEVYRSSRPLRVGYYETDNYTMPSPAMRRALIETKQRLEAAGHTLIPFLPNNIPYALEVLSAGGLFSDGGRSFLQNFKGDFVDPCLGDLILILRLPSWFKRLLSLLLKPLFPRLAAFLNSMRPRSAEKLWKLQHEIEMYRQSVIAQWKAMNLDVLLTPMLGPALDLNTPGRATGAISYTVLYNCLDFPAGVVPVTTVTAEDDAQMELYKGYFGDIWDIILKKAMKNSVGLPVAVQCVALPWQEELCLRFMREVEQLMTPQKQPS
Sequence of human FAAH-1 (O00519 whole entry): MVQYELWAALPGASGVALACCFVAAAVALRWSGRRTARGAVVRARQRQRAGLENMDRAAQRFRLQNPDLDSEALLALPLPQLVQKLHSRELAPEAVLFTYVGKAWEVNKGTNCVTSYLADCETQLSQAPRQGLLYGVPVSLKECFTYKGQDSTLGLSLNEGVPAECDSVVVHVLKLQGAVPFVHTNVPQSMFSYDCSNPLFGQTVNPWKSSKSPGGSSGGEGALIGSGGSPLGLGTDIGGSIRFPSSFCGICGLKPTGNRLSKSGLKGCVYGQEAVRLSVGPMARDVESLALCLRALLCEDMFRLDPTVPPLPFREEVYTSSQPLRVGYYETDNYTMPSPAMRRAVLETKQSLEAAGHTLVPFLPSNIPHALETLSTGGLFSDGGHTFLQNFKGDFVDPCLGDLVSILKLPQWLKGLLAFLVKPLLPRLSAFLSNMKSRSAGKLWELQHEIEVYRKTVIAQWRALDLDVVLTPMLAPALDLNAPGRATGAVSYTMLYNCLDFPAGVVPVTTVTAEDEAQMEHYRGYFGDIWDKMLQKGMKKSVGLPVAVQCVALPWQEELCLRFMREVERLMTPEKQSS

NC(=O)c1cccc(-c2cc(OC(=O)NC3CCCC3)ccc2F)c1 [Example 5, [3-(3-carbamoylphenyl)-4-fluoro-phenyl] N-cyclopentylcarbamate]
IC50 (Rat FAAH): 2.9 nM | IC50 (human FAAH-1): 0.84 nM

CS(=O)(=O)c1cccc(-c2cc(OC(=O)NC3CCCCC3)ccc2F)c1 [Example 7, [4-Fluoro-3-(3-methylsulfonylphenyl)phenyl] N-cyclohexylcarbamate]
IC50 (Rat FAAH): 8.9 nM | IC50 (human FAAH-1): 4.9 nM

NS(=O)(=O)c1cccc(-c2cc(OC(=O)NC3CCCCC3)ccc2OC(F)F)c1 [Example 10, [4-(difluoromethoxy)-3-(3-sulfamoylphenyl)phenyl] N-cyclohexylcarbamate]
IC50 (Rat FAAH): 8.2 nM | IC50 (human FAAH-1): 9.2 nM

NC(=O)c1cccc(-c2cc(F)cc(OC(=O)NC3CCCCC3)c2)c1 [Example 12, [3-(3-Carbamoylphenyl)-5-fluoro-phenyl] N-cyclohexylcarbamate]
IC50 (Rat FAAH): 0.23 nM | IC50 (human FAAH-1): 0.87 nM

NC(=O)c1cccc(-c2cccc(OC(=O)NC3CCCCC3)c2F)c1 [Example 13, [3-(3-Carbamoylphenyl)-2-Fluoro-Phenyl] N-Cyclohexylcarbamate]
IC50 (Rat FAAH): 1.9 nM | IC50 (human FAAH-1): 0.89 nM
